According to PubChem BioAssay AID248 (DTP/NCI, 2004):
Inconclusive results and toxic doses are left out. No stated cut-off is given here; in the data, active means T/C of 150% or more; inactive means T/C below 125%.

Tested on: L1210 leukemia ip in BDF1 mice, survival T/C
Experiment: NCI In Vivo Anticancer Drug Screen. Data for tumor model L1210 Leukemia (intraperitoneal) in B6D2F1 (BDF1) mice
Conditions: endpoint: mean survival time, higher = longer survival
Summary of the method: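 Mice bearing the transplanted tumor received compound or vehicle. Survival of the treated group was divided by that of the vehicle-treated control group to give the ratio.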

[1] = dose: 50.0 mg/kg/injection, schedule: Q01DX009 (ip), vehicle: Klucel (hydroxypropylcellulose) (HPC)
[2] = dose: 100.0 mg/kg/injection, schedule: Q01DX001 (ip), vehicle: saline
[3] = dose: 200.0 mg/kg/injection, schedule: Q01DX001 (ip), vehicle: saline
[4] = dose: 100.0 mg/kg/injection, schedule: Q04DX003 (ip), vehicle: saline with Tween-80
[5] = dose: 200.0 mg/kg/injection, schedule: Q04DX003 (ip), vehicle: saline with Tween-80
[6] = dose: 400.0 mg/kg/injection, schedule: Q04DX003 (ip), vehicle: saline with Tween-80
[7] = dose: 400.0 mg/kg/injection, schedule: Q01DX001 (ip), vehicle: saline
[8] = dose: 100.0 mg/kg/injection, schedule: Q04DX003 (ip), vehicle: saline
[9] = dose: 200.0 mg/kg/injection, schedule: Q04DX003 (ip), vehicle: saline
[10] = dose: 400.0 mg/kg/injection, schedule: Q04DX003 (ip), vehicle: saline

Measured: T/C

C[P+](c1ccc(F)cc1)(c1ccc(F)cc1)c1ccc(F)cc1
inactive: dose: 25.0 mg/kg/injection, schedule: Q01DX009 (ip), vehicle: Klucel (hydroxypropylcellulose) (HPC) 98 % of control | [1] 96 % of control | dose: 100.0 mg/kg/injection, schedule: Q04DX003 (ip), vehicle: Klucel (hydroxypropylcellulose) (HPC) 89 % of control

CN1C(=O)C2(c3ccccc31)C1CC3C(CO1)C1C2C3(CO)C[N+]1(C)C (stereo not given)
inactive: [2] 97 % of control | [3] 102 % of control

O=C1CCc2ccccc2C(=O)C1c1ccc(Cl)cc1 (stereo not given)
inactive: [4] 90 % of control | [5] 97 % of control | [6] 93 % of control

C=C(Cl)CSc1ccccc1
inactive: [2] 103 % of control | [3] 103 % of control | [7] 105 % of control

CN/N=C/c1ccc(O)c(OC)c1
inactive: [4] 95 % of control | [5] 90 % of control | [6] 91 % of control

CC(=O)N/N=C/c1ccc(N(C)C)cc1
inactive: dose: 100.0 mg/kg/injection, schedule: Q01DX001 (ip), vehicle: carboxymethylcellulose (CMC) 94 % of control | dose: 200.0 mg/kg/injection, schedule: Q01DX001 (ip), vehicle: carboxymethylcellulose (CMC) 94 % of control

CCOC(=O)C1=NN(c2ccccc2)C(=O)C1N=Nc1ccc(NS(=O)(=O)c2nccs2)cc1 (stereo not given)
inactive: [2] 102 % of control | [3] 105 % of control | [7] 96 % of control

CC1N=C(c2ccccc2)C(c2ccccc2)=NC1C (stereo not given)
inactive: [4] 94 % of control | [5] 101 % of control | [6] 101 % of control

O=C1CCc2cc3c(cc21)OCO3
inactive: [8] 103 % of control | [9] 96 % of control | [10] 102 % of control

COc1ccc(CCN=C(c2ccccc2)c2ccccc2)cc1OC
inactive: [8] 94 % of control | [9] 94 % of control | [10] 97 % of control

C=CC(C)(CC/C=C(\C)CCC=C(C)C)OC(=O)NC(=O)C(Cl)(Cl)Cl (stereo not given)
inactive: [1] 103 % of control | dose: 100.0 mg/kg/injection, schedule: Q01DX001 (ip), vehicle: Klucel (hydroxypropylcellulose) (HPC) 111 % of control | dose: 100.0 mg/kg/injection, schedule: Q01DX009 (ip), vehicle: Klucel (hydroxypropylcellulose) (HPC) 100 % of control | dose: 200.0 mg/kg/injection, schedule: Q01DX001 (ip), vehicle: Klucel (hydroxypropylcellulose) (HPC) 101 % of control | dose: 200.0 mg/kg/injection, schedule: Q01DX009 (ip), vehicle: Klucel (hydroxypropylcellulose) (HPC) 97 % of control | dose: 400.0 mg/kg/injection, schedule: Q01DX001 (ip), vehicle: Klucel (hydroxypropylcellulose) (HPC) 105 % of control

O=[N+]([O-])c1ccc(N/N=C(\CBr)c2ccccc2)c([N+](=O)[O-])c1
inactive: dose: 100.0 mg/kg/injection, schedule: Q01DX009 (ip), vehicle: saline with Tween-80 94 % of control | dose: 200.0 mg/kg/injection, schedule: Q01DX009 (ip), vehicle: saline with Tween-80 95 % of control | dose: 400.0 mg/kg/injection, schedule: Q01DX009 (ip), vehicle: saline with Tween-80 94 % of control

CCCCCCCCCCCCCCCCCC(=O)C(C(=O)OCC)C(=O)OCC
inactive: dose: 100.0 mg/kg/injection, schedule: Q01DX001 (ip), vehicle: other 93 % of control | dose: 200.0 mg/kg/injection, schedule: Q01DX001 (ip), vehicle: other 88 % of control | dose: 400.0 mg/kg/injection, schedule: Q01DX001 (ip), vehicle: other 90 % of control

OC1CCC2C=CCC1S2 (stereo not given)
inactive: dose: 100.0 mg/kg/injection, schedule: Q01DX009 (ip), vehicle: gum acacia 101 % of control | dose: 200.0 mg/kg/injection, schedule: Q01DX009 (ip), vehicle: gum acacia 100 % of control | dose: 400.0 mg/kg/injection, schedule: Q01DX009 (ip), vehicle: gum acacia 97 % of control

Cc1ccc(S(=O)(=O)N/N=C(\CSc2ccc(N(C)C)cc2)c2ccccc2)cc1
inactive: dose: 50.0 mg/kg/injection, schedule: Q04DX002 (ip), vehicle: saline with Tween-80 105 % of control | dose: 100.0 mg/kg/injection, schedule: Q04DX002 (ip), vehicle: saline with Tween-80 86 % of control | dose: 200.0 mg/kg/injection, schedule: Q04DX002 (ip), vehicle: saline with Tween-80 97 % of control | dose: 400.0 mg/kg/injection, schedule: Q04DX002 (ip), vehicle: saline with Tween-80 90 % of control

c1ccc(C[N+]23CCC(CC2)CC3)cc1
inactive: dose: 3.13 mg/kg/injection, schedule: Q01DX009 (ip), vehicle: saline 95 % of control | dose: 6.25 mg/kg/injection, schedule: Q01DX009 (ip), vehicle: saline 99 % of control | dose: 12.5 mg/kg/injection, schedule: Q01DX009 (ip), vehicle: saline 101 % of control
